Laboratory results published in US12629424B2, “Targeting Pleckstrin-2 for treating cancer” (Northwestern University, priority 2018, dated 2026).

Tests used:
[1] = system: Plek2-overexpressed Cos-7 cells; assay: Lamellipodia formation assay in Plek2-overexpressed Cos-7 cells (phalloidin actin stain); format: cell-based; conditions: 10 μM
Method: (§1) FIG. 4. NUP-17 directly targets and binds to Plek2. (A) Plek2 was overexpressed in mouse fetal liver Ter119 negative erythroblasts. NUP-17 (40 μM) were added in the control cells and Plek2 overexpressed cells. Cell number was calculated 48 hours after culture. (B) Plek2 was overexpressed in Cos-7 cells. Phalloidin 647 was used to stain actin in the indicated cells. 10 μM of NUP-17 was used. (C) Quantitative analysis of B. (D) ITC experiments using the microCal ITC200 instrument. 200 μM NUP-17 was titrated into a solution of 20 μM GST control or GST-Plek2. *P<0.05; *** P<0.001. 17 represents NUP-17.
FIG. 5. Identification of a potent analog of NUP-17. (A) NUP-17d was analyzed for the inhibitory effects on fetal liver erythroblasts as in FIG. 3. Indicated doses were used. (B) The structure of NUP-17d. (C) Plek2 was overexpressed in Cos-7 cells. Phalloidin 647 was used to stain actin in the indicated cells. 10 μM of NUP-17 and NUP-17d were used. (D) Quantitative analysis of C. **P<0.01; *** P<0.001. 17 and 17d represent NUP-17 and NUP-17d, respectively.
To confirm that the inhibitory effect of NUP-17 on the proliferation and differentiation of fetal liver erythroid cells is due to Plek2 binding, we overexpressed Plek2 in the fetal liver cells and treated the cells with NUP-17. […]

JAK2V617F knockin mice = assay: JAK2V617F knockin MPN mouse model; format: in vivo; conditions: 25 mg/kg once every two days, one month
Method: FIG. 15A and FIG. 15B. Compound NUP-17d ameliorates myeloproliferation and thrombosis in JAK2^V617F knockin mice. FIG. 15A. RBC and WBC count of indicated mice after NUP-17d treatment. Two-month-old JAK2^V617F knockin mice were treated with NUP-17d once every two days for three weeks. Wild type (WT) littermate control mice were used for comparison *P<0.05; ** P<0.01; *** P<0.001. FIG. 15B. H&E stain of the spleen and lung sections. Inserted panels with high magnification reveal vascular occlusions. Scale bars: 100 μm.
We tested the effects of Plek2 inhibitors in the JAK2^V617F knockin MPN mouse model. (See FIGS. 15A and 15B). The same dosage and dosing schedule of NUP-17d (25 mg/kg, once every two days) were applied to JAK2^V617F knockin mice as those applied to the Epo model. We have treated the mice for one month. […] (See FIG. 15A). […] (See FIG. 15B).

[2] = system: mouse fetal liver erythroid progenitors; assay: Proliferation of mouse fetal liver erythroid progenitors cultured in erythropoietin containing medium (Plek2 functional screening system); format: cell-based; conditions: mouse fetal liver erythroblasts, Epo medium
Method: FIG. 3. NUP-17 inhibits Plek2 function in fetal liver erythropoiesis. (A) Mouse Ter119 (a mature erythroid cell marker) negative erythroblasts were purified and cultured for two days (D0-D2). The protein levels of Plek2 and Hsc70 loading control were analyzed by a Western blot assay. (B) The structure of NUP-17. (C-D) The proliferation and enucleation (DNA negative) profiles of cells from A treated with different concentration of NUP-17 for 48 hours. (E) Simulated Plek2 DEP domain interaction with NUP-17 using Schrodinger software. Amino acids that are potentially critical for the interaction are highlighted in yellow. *P<0.05; ** P<0.01; *** P<0.001.
as §1, with “200 μM NUP-17 was titrated into a solution of 20 μM GST control or GST-Plek2. *P<0.05; *** P<0.001. 17 represents NUP-17.” left out
FIG. 5. […] (A) NUP-17d was analyzed for the inhibitory effects on fetal liver erythroblasts as in FIG. 3. […] (D) Quantitative analysis of C. **P<0.01; *** P<0.001. […]
FIG. 11. […] Analogs of NUP-17d were analyzed for their effect on fetal liver erythroblast proliferation as in FIG. 3. […]

phosphorylation of Akt = assay: Akt phosphorylation in erythropoietin-treated bone marrow lineage negative cells (Western blot); format: cell-based, mouse; conditions: wild type bone marrow lineage negative cells, 10 μM
Method: (§2) FIG. 7. Plek2 binds to PtdIns(3,4)P2 and is critical for the PI3K signaling pathway. […] (B) Plek2 membrane association and cell spreading are PI3K dependent. Jurkat cells expressing GFP fused to the amino-terminus of wild-type Plek2 were plated on fibronectin. Real-time confocal imaging of live cells was performed. Shown is a cell expressing Plek2 before and after inhibition of PI3K with 100 nM wortmannin. (C) Bone marrow lineage negative cells from the indicated mice were treated with 2 units erythropoietin for the indicated amount of time (minutes). The level of Phospho-Akt and total Akt were analysis by Western blot assays. (D) Same as C except wild type bone marrow cells were used. 10 μM NUP-17d was used. The levels of the indicated proteins were analyzed by Western blot assays. (E) Kaplan-Meier survival analysis of indicated mice. Ptenfl/fl mice were crossed with Mx-Cre and Plek2 whole body knockout mice. The deletion of Pten in the hematopoietic tissues was induced by poly-IC injection. N=5 in each group. P=0.0067 between Ptenfl/flMx-Cre and Ptenfl/flMx-Cre, Plek2 KO. (F) Hematoxylin and eosin stain of the lungs from representative mice in E. Scale bar: 100 μm.
To further determine the role of Plek2 in PI3K pathway, we overexpressed GFP-fusion Plek2 in Jurkat cells. […]

Plek2 = target: T1, Plek2 (Homo sapiens, UniProt Q9NYT0); assay: Plek2-lipid binding (protein-lipid overlay); conditions: data not shown
T1 construct: we examined the ability of full-length protein to adhere to various phospholipids
T1 sequence (Q9NYT0 1-353): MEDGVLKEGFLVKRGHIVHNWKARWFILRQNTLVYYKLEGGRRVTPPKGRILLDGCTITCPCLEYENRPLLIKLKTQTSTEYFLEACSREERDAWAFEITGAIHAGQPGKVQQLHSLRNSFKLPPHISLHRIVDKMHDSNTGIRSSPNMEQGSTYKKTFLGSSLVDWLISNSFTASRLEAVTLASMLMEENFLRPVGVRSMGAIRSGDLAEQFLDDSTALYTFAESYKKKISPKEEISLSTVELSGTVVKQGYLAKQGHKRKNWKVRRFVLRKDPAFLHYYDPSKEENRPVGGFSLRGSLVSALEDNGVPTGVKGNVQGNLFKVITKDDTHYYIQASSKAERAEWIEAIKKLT
Method: as §2
Rationale and Preliminary Data. […] To define the lipid binding specificity of Plek2, we examined the ability of full-length protein to adhere to various phospholipids.

GST-Plek2 [3] = target: T2, GST-Plek2 (Homo sapiens, UniProt Q9NYT0); assay: Isothermal titration calorimetry (ITC) binding to GST-tagged Plek2; conditions: FIG. 17
T2 construct: made in house
T2 sequence (Q9NYT0 1-353): T1 sequence (Q9NYT0 1-353)
Method: as §1
(§3) FIG. 17. Isothermal titration calorimetry (ITC) experiments of NUP-17d and its enantiomers. -17-d: delta H=−1.9 kcal/mol delta S=+22.9 cal/molK; -17-1b: delta H=−2.2 kcal/mol delta S=+22.8 cal/molK; -17-2b: delta H=−1.5 kcal/mol delta S=+24.3 cal/molK; -17-1a: delta H=−5.3 kcal/mol delta S=+7.3 cal/molK; and -17-2a: delta H=−4.2 kcal/mol delta S=+13.9 cal/molK.
(§4) To confirm that the inhibitory effect of NUP-17 on the proliferation and differentiation of fetal liver erythroid cells is due to Plek2 binding, we overexpressed Plek2 in the fetal liver cells and treated the cells with NUP-17. […] In addition, we also overexpressed Plek2 in Cos-7 cells, which induced prominent lamellipodia formation as previously reported (13).
Biophysical Assays and Counter-Screening. […]

[4] = system: Epo-induced myeloproliferation in wild-type mice; assay: Erythropoietin (Epo) injection mouse model; format: in vivo
GST-Plek2 [5] = target: T2, GST-Plek2; assay: isothermal titration calorimetry (ITC) of NUP-17d and its enantiomers with Plek2; format: binding; conditions: PBS with 0.5% DMSO, 200 μM compound into 20 μM GST-Plek2
Method: as §1, §3, §4
Biophysical Assays and Counter-Screening. To confirm the interaction of the optimized compounds with Plek2, we will perform isothermal calorimetry (ITC) using the recombinant protein GST-Plek2 or Flag-tagged Plek2 we have produced. Specifically, MicroCal ITC200 instrument (GE Healthcare) with the jacket temperature will set at 25° C. The protein and our compound solutions will be prepared in PBS with 0.5% DMSO. Titrations of 200 μM compound into 20 μM GST-Plek2 solutions will be sufficient for 15 injections of 2.5 μl each with 120 seconds spacing between injections and a mixing speed at 900 rpm. An initial 0.1 μl injection will subsequently be removed during data analysis. A control experiment will be performed by titrating 200 μM compound into a solution of 20 μM GST. […]

[6] = 40 mg/kg every 2 days for 8 days
[7] = FIG. 17, general method: MicroCal ITC200, 25° C

For CN1CCN(C(c2ccc(Cl)cc2)C(O)C(=O)c2c[nH]c3ccccc23)CC1 (stereo not shown) [NUP-17d], the “reversal of lamellipodia in Plek2 overexpressed Cos-7 cells” value [1] was “more potent inhibition”, the WBC count (JAK2V617F knockin mice) was “largely normalized” and the “red blood cell count” value (JAK2V617F knockin mice) was “significantly reduced”. For the same compound, the “side effects with the treatment” value (JAK2V617F knockin mice) was “no gross side effects”, the “spleen size and extramedullary erythropoiesis” value (JAK2V617F knockin mice) was “markedly reduced” and the “vascular occlusions in the lungs” value (JAK2V617F knockin mice) was “dramatically ameliorated”. For the same compound, the IC50 [2] was < 10000 nM, the “phosphorylation of Akt” value (phosphorylation of Akt) was “significantly inhibited” and the “disruption of Plek2-lipid binding” value (Plek2) was “did not disrupt Plek2-lipid binding”. For the same compound, the “ITC delta H” value (GST-Plek2 [3]) was -1.9 kcal/mol, the “ITC delta S” value (GST-Plek2 [3]) was “+22.9 cal/molK” and the “Epo-induced erythrocytosis in spleen red pulp and lung vasculature (histology)” value [4, 6] was “markedly ameliorated”. The Epo-induced leukocytosis [4, 6] was “significantly reduced”, the Epo-induced reticulocytosis [4, 6] was “significantly reduced” and the Epo-induced splenomegaly [4, 6] was “significantly reduced”. For the same compound, the Epo-induced vascular occlusions [4, 6] was “significantly reduced”, the tolerability ([4]; 40 mg/kg, 2 days, preliminary studies) was “well-tolerated” and the “red blood cell count” value ([4]; Epo 5,000 U/kg every 2 days, compound 40 mg/kg every 2 days for 8 days, 3 weeks) was “did not significantly reduce”. The “hematologic or other abnormalities in treated mice” value ([4]; during the experiments) was “no hematologic or other abnormalities”.
Work on CN1CCN([C@H](c2ccc(Cl)cc2)[C@@H](O)C(=O)c2c[nH]c3ccccc23)CC1 [17d-1a] yielded a Kd (GST-Plek2 [5]; FIG. 17, value printed in uM, general method: MicroCal ITC200, 25° C) of 2.12 µM.
In the case of CN1CCN([C@@H](c2ccc(Cl)cc2)[C@H](O)C(=O)c2c[nH]c3ccccc23)CC1 [17d-1b], the Kd (GST-Plek2 [5]; [7]) is reported as 0.357 µM.
Work on CN1CCN(C(c2ccc(Cl)cc2)C(O)C(=O)c2c[nH]c3ccccc23)CC1 (stereo not shown) [17d] yielded a Kd (GST-Plek2 [5]; [7]) of 0.4 µM.
